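1) Cells in 96-well plates. 2) Compound, 48 h, 5 concentrations. 3) Linear interpolation between surrounding doses. 4) Unreached endpoint = highest concentration. TGI is the concentration that stops growth completely.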
Legend:
Test in all cases: NCI-60 cell line screen, 48 h
OVCAR-5 ovarian = tested on: OVCAR-5 ovarian
CAKI-1 renal = tested on: CAKI-1 renal
HOP-92 NSCLC = tested on: HOP-92 NSCLC
UO-31 renal = tested on: UO-31 renal
DU-145 prostate = tested on: DU-145 prostate
BT-549 breast = tested on: BT-549 breast
A498 renal = tested on: A498 renal
MALME-3M melanoma = tested on: MALME-3M melanoma
IGROV1 ovarian = tested on: IGROV1 ovarian
MCF7 breast = tested on: MCF7 breast
HCT-15 colon = tested on: HCT-15 colon
PC-3 prostate = tested on: PC-3 prostate
MDA-N = tested on: MDA-N
MDA-MB-231 breast = tested on: MDA-MB-231 breast
SNB-75 CNS = tested on: SNB-75 CNS
SK-MEL-28 melanoma = tested on: SK-MEL-28 melanoma
M14 melanoma = tested on: M14 melanoma
SF-539 CNS = tested on: SF-539 CNS
A549 NSCLC = tested on: A549 NSCLC
ACHN renal = tested on: ACHN renal
SK-MEL-5 melanoma = tested on: SK-MEL-5 melanoma
U251 CNS = tested on: U251 CNS
SF-295 CNS = tested on: SF-295 CNS
NCI-H460 lung = tested on: NCI-H460 lung
NCI/ADR-RES ovarian = tested on: NCI/ADR-RES ovarian
SR leukemia = tested on: SR leukemia
SK-OV-3 ovarian = tested on: SK-OV-3 ovarian
COLO 205 colon = tested on: COLO 205 colon
UACC-257 melanoma = tested on: UACC-257 melanoma
HL-60(TB) leukemia = tested on: HL-60(TB) leukemia
SNB-19 CNS = tested on: SNB-19 CNS
MDA-MB-435 = tested on: MDA-MB-435
MOLT-4 leukemia = tested on: MOLT-4 leukemia
NCI-H226 lung = tested on: NCI-H226 lung
OVCAR-3 ovarian = tested on: OVCAR-3 ovarian
HOP-62 NSCLC = tested on: HOP-62 NSCLC
OVCAR-4 ovarian = tested on: OVCAR-4 ovarian
T-47D breast = tested on: T-47D breast
OVCAR-8 ovarian = tested on: OVCAR-8 ovarian
NCI-H522 lung = tested on: NCI-H522 lung
SK-MEL-2 melanoma = tested on: SK-MEL-2 melanoma
EKVX NSCLC = tested on: EKVX NSCLC
HT29 colon = tested on: HT29 colon
K-562 leukemia = tested on: K-562 leukemia
HS 578T breast = tested on: HS 578T breast
LOX IMVI melanoma = tested on: LOX IMVI melanoma
TK-10 renal = tested on: TK-10 renal
RPMI-8226 leukemia = tested on: RPMI-8226 leukemia
SF-268 CNS = tested on: SF-268 CNS
786-0 renal = tested on: 786-0 renal
HCT-116 colon = tested on: HCT-116 colon
CCRF-CEM leukemia = tested on: CCRF-CEM leukemia
RXF 393 renal = tested on: RXF 393 renal
KM12 colon = tested on: KM12 colon
NCI-H23 lung = tested on: NCI-H23 lung
SN12C renal = tested on: SN12C renal

In the case of COc1ccc(/C=C/c2nsc(/C=C/c3ccc(OC)cc3)n2)cc1, the TGI (OVCAR-5 ovarian) is reported as > 100 µM, the TGI (CAKI-1 renal) is reported as > 100 µM and the TGI (HOP-92 NSCLC) is reported as > 100 µM. The TGI (UO-31 renal) was > 100 µM, the TGI (DU-145 prostate) was > 100 µM and the TGI (BT-549 breast) was > 100 µM. For the same molecule, the TGI (A498 renal) was > 100 µM, the TGI (MALME-3M melanoma) was > 100 µM and the TGI (IGROV1 ovarian) was > 100 µM. For the same molecule, the TGI (MCF7 breast) was > 100 µM, the TGI (HCT-15 colon) was > 100 µM and the TGI (PC-3 prostate) was > 100 µM. For the same molecule, the TGI (MDA-N) was > 100 µM, the TGI (MDA-MB-231 breast) was > 100 µM and the TGI (SNB-75 CNS) was > 100 µM. The TGI (SK-MEL-28 melanoma) was > 100 µM, the TGI (M14 melanoma) was > 100 µM and the TGI (SF-539 CNS) was > 100 µM. For the same molecule, the TGI (A549 NSCLC) was > 100 µM, the TGI (ACHN renal) was > 100 µM and the TGI (SK-MEL-5 melanoma) was > 100 µM. For the same molecule, the TGI (U251 CNS) was > 100 µM, the TGI (SF-295 CNS) was > 100 µM and the TGI (NCI-H460 lung) was 88.7 µM. The TGI (NCI/ADR-RES ovarian) was > 100 µM, the TGI (SR leukemia) was > 100 µM and the TGI (SK-OV-3 ovarian) was > 100 µM. For the same molecule, the TGI (COLO 205 colon) was > 100 µM, the TGI (UACC-257 melanoma) was > 100 µM and the TGI (HL-60(TB) leukemia) was > 100 µM. For the same molecule, the TGI (SNB-19 CNS) was > 100 µM, the TGI (MDA-MB-435) was > 100 µM and the TGI (MOLT-4 leukemia) was > 100 µM. For the same molecule, the TGI (NCI-H226 lung) was > 100 µM, the TGI (OVCAR-3 ovarian) was > 100 µM and the TGI (HOP-62 NSCLC) was > 100 µM. The TGI (OVCAR-4 ovarian) was > 100 µM, the TGI (T-47D breast) was > 100 µM and the TGI (OVCAR-8 ovarian) was > 100 µM. For the same molecule, the TGI (NCI-H522 lung) was > 100 µM, the TGI (SK-MEL-2 melanoma) was > 100 µM and the TGI (EKVX NSCLC) was > 100 µM. For the same molecule, the TGI (HT29 colon) was > 100 µM, the TGI (K-562 leukemia) was > 100 µM and the TGI (HS 578T breast) was > 100 µM. For the same molecule, the TGI (LOX IMVI melanoma) was > 100 µM, the TGI (TK-10 renal) was > 100 µM and the TGI (RPMI-8226 leukemia) was > 100 µM. For the same molecule, the TGI (SF-268 CNS) was > 100 µM, the TGI (786-0 renal) was 41.8 µM and the TGI (HCT-116 colon) was > 100 µM. The TGI (CCRF-CEM leukemia) was > 100 µM, the TGI (RXF 393 renal) was > 100 µM and the TGI (KM12 colon) was > 100 µM.

In the case of C(=N\c1nc2cc3sc(/N=C/c4cccs4)nc3cc2s1)/c1cccs1, the TGI (OVCAR-5 ovarian) is reported as > 100 µM, the TGI (CAKI-1 renal) is reported as > 100 µM and the TGI (HOP-92 NSCLC) is reported as > 100 µM. For the same molecule, the TGI (UO-31 renal) was > 100 µM, the TGI (DU-145 prostate) was > 100 µM and the TGI (BT-549 breast) was > 100 µM. The TGI (A498 renal) was > 100 µM, the TGI (MALME-3M melanoma) was > 100 µM and the TGI (IGROV1 ovarian) was > 100 µM. For the same molecule, the TGI (MCF7 breast) was > 100 µM, the TGI (NCI-H23 lung) was > 100 µM and the TGI (HCT-15 colon) was > 100 µM. The TGI (PC-3 prostate) was > 100 µM, the TGI (MDA-N) was > 100 µM and the TGI (MDA-MB-231 breast) was > 100 µM. The TGI (SNB-75 CNS) was > 100 µM, the TGI (SK-MEL-28 melanoma) was > 100 µM and the TGI (M14 melanoma) was > 100 µM. The TGI (SF-539 CNS) was > 100 µM, the TGI (A549 NSCLC) was > 100 µM and the TGI (ACHN renal) was > 100 µM. The TGI (SK-MEL-5 melanoma) was > 100 µM, the TGI (U251 CNS) was > 100 µM and the TGI (SF-295 CNS) was > 100 µM. The TGI (NCI-H460 lung) was > 100 µM, the TGI (NCI/ADR-RES ovarian) was > 100 µM and the TGI (SR leukemia) was > 100 µM. For the same molecule, the TGI (SK-OV-3 ovarian) was > 100 µM, the TGI (COLO 205 colon) was 12.4 µM and the TGI (UACC-257 melanoma) was > 100 µM. The TGI (HL-60(TB) leukemia) was > 100 µM, the TGI (SNB-19 CNS) was > 100 µM and the TGI (MDA-MB-435) was > 100 µM. For the same molecule, the TGI (MOLT-4 leukemia) was > 100 µM, the TGI (NCI-H226 lung) was 88.1 µM and the TGI (OVCAR-3 ovarian) was > 100 µM. For the same molecule, the TGI (HOP-62 NSCLC) was > 100 µM, the TGI (OVCAR-4 ovarian) was > 100 µM and the TGI (T-47D breast) was > 100 µM. The TGI (OVCAR-8 ovarian) was > 100 µM, the TGI (NCI-H522 lung) was > 100 µM and the TGI (SK-MEL-2 melanoma) was > 100 µM. The TGI (EKVX NSCLC) was > 100 µM, the TGI (HT29 colon) was > 100 µM and the TGI (K-562 leukemia) was > 100 µM. For the same molecule, the TGI (HS 578T breast) was > 100 µM, the TGI (LOX IMVI melanoma) was > 100 µM and the TGI (TK-10 renal) was > 100 µM. The TGI (RPMI-8226 leukemia) was > 100 µM, the TGI (SF-268 CNS) was > 100 µM and the TGI (786-0 renal) was > 100 µM. The TGI (HCT-116 colon) was > 100 µM, the TGI (CCRF-CEM leukemia) was > 100 µM and the TGI (RXF 393 renal) was > 100 µM. For the same molecule, the TGI (KM12 colon) was > 100 µM and the TGI (SN12C renal) was > 100 µM.

Source: PubChem BioAssay (NCI)
